ChEMBL document CHEMBL5344406, “1,2,3-Triazole-containing hybrids with potential antibacterial activity against ESKAPE pathogens” (2022)
≈ marks a conversion by molar mass, not a printed value.

Experiments:
Format in all cases: functional
Escherichia coli [1] = assay: Antibacterial activity against Escherichia coli assessed as bacterial growth inhibition by serial dilution method
Pseudomonas aeruginosa [2] = assay: Antibacterial activity against Pseudomonas aeruginosa assessed as bacterial growth inhibition by serial dilution method
Bacillus subtilis = assay: Antibacterial activity against Bacillus subtilis assessed as bacterial growth inhibition by serial dilution method
Staphylococcus aureus [3] = assay: Antibacterial activity against Staphylococcus aureus assessed as bacterial growth inhibition by serial dilution method
[4] = tested on: Staphylococcus epidermidis; assay: Antibacterial activity against Staphylococcus epidermidis assessed as bacterial growth inhibition by serial dilution method
Escherichia coli [5] = assay: Antibacterial activity against Escherichia coli assessed as bacterial growth inhibition
Pseudomonas aeruginosa [6] = assay: Antibacterial activity against Pseudomonas aeruginosa assessed as bacterial growth inhibition
Staphylococcus aureus [7] = assay: Antibacterial activity against Staphylococcus aureus ATCC 25923 assessed as bacterial growth inhibition incubated for 18 to 20 hrs by broth microdilution method; conditions: time 18-20 hrs
Escherichia coli [8] = assay: Antibacterial activity against Escherichia coli ATCC 25922 assessed as bacterial growth inhibition incubated for 18 to 20 hrs by broth microdilution method; conditions: time 18-20 hrs
Klebsiella pneumoniae = assay: Antibacterial activity against Klebsiella pneumoniae ATCC 29665 assessed as bacterial growth inhibition incubated for 18 to 20 hrs by broth microdilution method; conditions: time 18-20 hrs
Acinetobacter baumannii = assay: Antibacterial activity against Acinetobacter baumannii ATCC 19606 assessed as bacterial growth inhibition incubated for 18 to 20 hrs by broth microdilution method; conditions: time 18-20 hrs
Pseudomonas aeruginosa [9] = assay: Antibacterial activity against Pseudomonas aeruginosa ATCC 27853 assessed as bacterial growth inhibition incubated for 18 to 20 hrs by broth microdilution method; conditions: time 18-20 hrs
Staphylococcus aureus [10] = assay: Antibacterial activity against methicillin-resistant Staphylococcus aureus clinical isolate 1 assessed as bacterial growth inhibition incubated for 8 hrs by CLSI based broth microdilution method
Staphylococcus aureus [11] = assay: Antibacterial activity against methicillin-resistant Staphylococcus aureus clinical isolate 2 assessed as bacterial growth inhibition incubated for 8 hrs by CLSI based broth microdilution method

Row | Structure (SMILES) | MIC (Escherichia coli [1]) [µg/mL] | MIC (Pseudomonas aeruginosa [2]) [µg/mL] | MIC (Bacillus subtilis) [µg/mL] | MIC (Staphylococcus aureus [3]) [µg/mL] | MIC [4] [µg/mL] | MIC (Staphylococcus aureus [10]) [µg/mL] | MIC (Staphylococcus aureus [11]) [µg/mL] | also measured
1 | NC(=O)N/N=C/c1ccccc1OCc1cn(-c2ccc(Br)cc2)nn1 | 25 (≈ 60.2 µM) | 25 (≈ 60.2 µM) | 25 (≈ 60.2 µM) | 25 (≈ 60.2 µM) | 25 (≈ 60.2 µM) |  |  | 
2 | O=C(/C=C/c1ccc(OCc2cn(Cc3ccc(Br)cc3)nn2)cc1)c1ccc([N+](=O)[O-])cc1 |  |  |  |  |  |  |  | MIC (Escherichia coli [5]): 6.25 µg/mL (≈ 12 µM); MIC (Pseudomonas aeruginosa [6]): 6.25 µg/mL (≈ 12 µM)
3 | Cc1cc(O)c(C(=O)/C=C/c2ccc(OCc3cn(Cc4ccc(Br)cc4)nn3)cc2)c(=O)o1 |  |  |  |  |  |  |  | MIC (Escherichia coli [5]): 1.56 µg/mL (≈ 2.99 µM); MIC (Pseudomonas aeruginosa [6]): 1.56 µg/mL (≈ 2.99 µM)
4 | O=C(Cn1cc(CN2CCN(c3cc4c(cc3F)c(=O)c(C(=O)O)cn4C3CC3)CC2)nn1)N[C@@H](Cc1ccccn1)C(=O)O |  |  |  |  |  |  |  | MIC (Staphylococcus aureus [7]): 0.25 µg/mL (≈ 0.404 µM); MIC (Escherichia coli [8]): 0.25 µg/mL (≈ 0.404 µM); MIC (Klebsiella pneumoniae): 0.25 µg/mL (≈ 0.404 µM); MIC (Acinetobacter baumannii): 0.25 µg/mL (≈ 0.404 µM); MIC (Pseudomonas aeruginosa [9]): 0.25 µg/mL (≈ 0.404 µM)
5 | CC(C)C[C@@H](N)C(=O)N[C@H]1C(=O)N[C@@H](CC(N)=O)C(=O)N[C@H]2C(=O)N[C@H]3C(=O)N[C@H](C(=O)N[C@H](C(=O)O)c4cc(O)cc(O)c4-c4cc3ccc4O)[C@H](O)c3ccc(c(Cl)c3)Oc3cc2cc(c3O[C@@H]2O[C@H](CO)[C@@H](O)[C@H](O)[C@H]2O[C@H]2C[C@](C)(N)[C@H](O)[C@H](C)O2)Oc2ccc(cc2Cl)[C@H]1O |  |  |  |  |  | 1.56 (≈ 1.09 µM) | 1.56 (≈ 1.09 µM) | 
6 | CC(C)C[C@H](C(=O)N[C@@H]1Cc2ccc(c(Cl)c2)Oc2cc3cc(c2O[C@@H]2O[C@H](CO)[C@@H](O)[C@H](O)[C@H]2O[C@H]2C[C@](C)(NCCCCCCCc4ccccc4)[C@H](O)[C@H](C)O2)Oc2ccc(cc2Cl)[C@@H](O)[C@@H]2NC(=O)[C@H](NC(=O)[C@@H]3NC(=O)[C@H](CC(=O)O)NC1=O)c1ccc(O)c(c1)-c1c(O)cc(O)cc1[C@H](C(=O)O)NC2=O)n1cc(COCCOCCOCc2cn([C@H](CC(C)C)C(=O)N[C@@H]3Cc4ccc(c(Cl)c4)Oc4cc5cc(c4O[C@@H]4O[C@H](CO)[C@@H](O)[C@H](O)[C@H]4O[C@H]4C[C@](C)(NCCCCCCCc6ccccc6)[C@H](O)[C@H](C)O4)Oc4ccc(cc4Cl)[C@@H](O)[C@@H]4NC(=O)[C@H](NC(=O)[C@@H]5NC(=O)[C@H](CC(=O)O)NC3=O)c3ccc(O)c(c3)-c3c(O)cc(O)cc3[C@H](C(=O)O)NC4=O)nn2)nn1 |  |  |  |  |  | 6.25 (≈ 1.83 µM) | 6.25 (≈ 1.83 µM) | 
7 | NC(=O)N/N=C/c1ccccc1OCc1cn(-c2ccccc2)nn1 | 25 (≈ 74.3 µM) | 25 (≈ 74.3 µM) | 25 (≈ 74.3 µM) | 25 (≈ 74.3 µM) | 25 (≈ 74.3 µM) |  |  | 
8 | COc1ccc(-n2cc(COc3ccccc3/C=N/NC(N)=O)nn2)cc1 | 25 (≈ 68.2 µM) | 25 (≈ 68.2 µM) | 25 (≈ 68.2 µM) | 25 (≈ 68.2 µM) | 25 (≈ 68.2 µM) |  |  | 
9 | NC(=O)N/N=C/c1ccccc1OCc1cn(-c2ccc(Cl)cc2)nn1 | 25 (≈ 67.4 µM) | 25 (≈ 67.4 µM) | 25 (≈ 67.4 µM) | 25 (≈ 67.4 µM) | 25 (≈ 67.4 µM) |  |  | 
10 | NC(=S)N/N=C/c1ccccc1OCc1cn(Cc2ccc(Br)cc2)nn1 | 6.25 (≈ 14 µM) | 6.25 (≈ 14 µM) | 6.25 (≈ 14 µM) | 6.25 (≈ 14 µM) | 6.25 (≈ 14 µM) |  |  | 
11 | CC(C)C[C@H](C(=O)N[C@@H]1Cc2ccc(c(Cl)c2)Oc2cc3cc(c2O[C@@H]2O[C@H](CO)[C@@H](O)[C@H](O)[C@H]2O[C@H]2C[C@](C)(NCCCCCCCc4ccccc4)[C@H](O)[C@H](C)O2)Oc2ccc(cc2Cl)[C@@H](O)[C@@H]2NC(=O)[C@H](NC(=O)[C@@H]3NC(=O)[C@H](CC(=O)O)NC1=O)c1ccc(O)c(c1)-c1c(O)cc(O)cc1[C@H](C(=O)O)NC2=O)n1cc(COCCCCCCOCc2cn([C@H](CC(C)C)C(=O)N[C@@H]3Cc4ccc(c(Cl)c4)Oc4cc5cc(c4O[C@@H]4O[C@H](CO)[C@@H](O)[C@H](O)[C@H]4O[C@H]4C[C@](C)(NCCCCCCCc6ccccc6)[C@H](O)[C@H](C)O4)Oc4ccc(cc4Cl)[C@@H](O)[C@@H]4NC(=O)[C@H](NC(=O)[C@@H]5NC(=O)[C@H](CC(=O)O)NC3=O)c3ccc(O)c(c3)-c3c(O)cc(O)cc3[C@H](C(=O)O)NC4=O)nn2)nn1 |  |  |  |  |  | 6.25 (≈ 1.82 µM) | 6.25 (≈ 1.82 µM) | 
12 | COc1ccc(C[C@H](NC(=O)Cn2cc(CN3CCN(c4cc5c(cc4F)c(=O)c(C(=O)O)cn5C4CC4)CC3)nn2)C(=O)O)cc1OC |  |  |  |  |  |  |  | MIC (Staphylococcus aureus [7]): 0.25 µg/mL (≈ 0.369 µM); MIC (Escherichia coli [8]): 0.25 µg/mL (≈ 0.369 µM); MIC (Klebsiella pneumoniae): 0.25 µg/mL (≈ 0.369 µM); MIC (Acinetobacter baumannii): 0.25 µg/mL (≈ 0.369 µM); MIC (Pseudomonas aeruginosa [9]): 0.25 µg/mL (≈ 0.369 µM)
13 | CC(C)C[C@H](C(=O)N[C@@H]1Cc2ccc(c(Cl)c2)Oc2cc3cc(c2O[C@@H]2O[C@H](CO)[C@@H](O)[C@H](O)[C@H]2O[C@H]2C[C@](C)(NCCCCCCCc4ccccc4)[C@H](O)[C@H](C)O2)Oc2ccc(cc2Cl)[C@@H](O)[C@@H]2NC(=O)[C@H](NC(=O)[C@@H]3NC(=O)[C@H](CC(=O)O)NC1=O)c1ccc(O)c(c1)-c1c(O)cc(O)cc1[C@H](C(=O)O)NC2=O)n1cc(COc2ccc(-c3ccc(OCc4cn([C@@H](CC(C)C)C(=O)N[C@H]5Cc6ccc(c(Cl)c6)Oc6cc7cc(c6O[C@H]6O[C@@H](CO)[C@H](O)[C@@H](O)[C@@H]6O[C@@H]6C[C@@](C)(NCCCCCCCc8ccccc8)[C@@H](O)[C@@H](C)O6)Oc6ccc(cc6Cl)[C@H](O)[C@H]6NC(=O)[C@@H](NC(=O)[C@H]7NC(=O)[C@@H](CC(=O)O)NC5=O)c5ccc(O)c(c5)-c5c(O)cc(O)cc5[C@@H](C(=O)O)NC6=O)nn4)cc3)cc2)nn1 |  |  |  |  |  | 6.25 (≈ 1.78 µM) | 6.25 (≈ 1.78 µM) | 
14 | O=C(/C=C/c1ccc(OCc2cn(Cc3ccc(Br)cc3)nn2)cc1)c1ccc(Br)cc1 |  |  |  |  |  |  |  | MIC (Escherichia coli [5]): 6.25 µg/mL (≈ 11.3 µM); MIC (Pseudomonas aeruginosa [6]): 6.25 µg/mL (≈ 11.3 µM)
15 | C#CCOCCOCCOCc1cn([C@H](CC(C)C)C(=O)N[C@@H]2Cc3ccc(c(Cl)c3)Oc3cc4cc(c3O[C@@H]3O[C@H](CO)[C@@H](O)[C@H](O)[C@H]3O[C@H]3C[C@](C)(NCCCCCCCc5ccccc5)[C@H](O)[C@H](C)O3)Oc3ccc(cc3Cl)[C@@H](O)[C@@H]3NC(=O)[C@H](NC(=O)[C@@H]4NC(=O)[C@H](CC(=O)O)NC2=O)c2ccc(O)c(c2)-c2c(O)cc(O)cc2[C@H](C(=O)O)NC3=O)nn1 |  |  |  |  |  | 25 (≈ 13.9 µM) | 12.5 (≈ 6.93 µM) | 
